The record followed here is PMC11329504, “Identification of novel small molecule-based strategies of COL7A1 upregulation and readthrough activity for the treatment of recessive dystrophic epidermolysis bullosa” (Scientific Reports, 2024).

In one series the target is T1, Dopamine transporter (Homo sapiens, UniProt Q01959).
T1 construct: Eurofins Pharma Discovery Services
As to the kind of experiment: Selectivity panel (Eurofins): dopamine transporter. It counts as binding. Particulars: n = 1, duplicate. How it is done: (§1) Selectivity was evaluated at Eurofins Pharma Discovery Services at 3 µM, 10 µM, and 30 µM in duplicate using a selection of 84 representative kinases and 44 GPCRs, transporters, nuclear receptors (NR), enzymes, and ion channels.

The nature of series [1]: Cytotoxicity, ATP levels (ATPlite), RDEB_L1 cells. The following applies: human, RDEB L1 cells (RDEB patient-derived cell line). The series is classed as cell-based. The protocol: The viability of RDEB patient-derived cell lines or NHK was evaluated by measuring the ATP levels as an indirect readout of the potential cytotoxicity effect of compounds. Cells were plated and treated exactly with the same conditions as those followed in the AlphaLISA assay, described above. To measure ATP levels, cells were processed using the ATPlite™ 1step luminescence-based assay (PerkinElmer 6,016,731), following the manufacturer’s protocol. 25 μL of ATPlite™ reagent was added directly over cells and plates were covered with a sealing film and shaken for 25 min using a microtiter plate shaker. Luminescence was measured in a Luminoskan Ascent luminometer (Thermo Fisher Scientific). 10 μM of Staurosporine was used as a reference compound and control for the total cytotoxicity.
A general note: In ATP-based viability assays light output follows the ATP content of the culture.

A further series has as its target T2, PDE4D2 (Homo sapiens, UniProt Q08499).
T2 construct: Eurofins Pharma Discovery Services
Description: Selectivity panel (Eurofins): PDE4D2. The following applies: n = 1, duplicate. It counts as biochemical. The protocol:
as §1

The next series has as its system NHK cells. Description: Cytotoxicity, ATP levels, normal human keratinocytes (NHK). It counts as cell-based. The following applies: NHK cells, ATP levels, at 100 µM. In outline:
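RDEB patient-derived cells, CHO cells or normal human keratinocytes were plated and treated as in the AlphaLISA assay. Viability was read as ATP by ATPlite 1step luminescence; 10 μM staurosporine served as the total-cytotoxicity control.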

The test system of the next series is Kappa (KOP). Description: Selectivity panel (Eurofins): Kappa (KOP). It counts as binding. Particulars: n = 1, duplicate. The protocol:
as §1

Series [2] deals with total C7 in HEK293^R578X cells. As to the kind of experiment: AlphaLISA quantification of total C7 in recombinant HEK293^R578X cells. It counts as cell-based, human. The following applies: for EC50: Homo sapiens, total C7 AlphaLISA, 48 h, relative EC50, mean ± SD, read-out: Increase in C7 levels EC50. How it is done:
The AlphaLISA assay was developed in-house by using the biotin-conjugated rabbit polyclonal antibody anti-C7 (LSBio LS-298147) and conjugating the acceptor beads (PerkinElmer 6772001) to a monoclonal anti-Collagen type VII antibody produced in mouse, clone LH7.2 (Thermo MA5-13,432). Formulation of the mAb clone LH7.2 was exchanged to PBS and concentrated 5 × by using Amicon® Ultra-0.5 centrifugal filters up to 1 mg/ml. The conjugation procedure was carried out according to the protocol provided by PerkinElmer.
For compound treatment in RDEB patient-derived transformed keratinocytes, 5,000 cells were plated in 20 µL of supplemented KGM media containing 20 ng/mL TGFβ2 (SIGMA GF113) without GA-1000 in 384-well cell culture plates (Greiner 781098). The day after, 5 µL of test compounds prepared 5 × in supplemented KGM without GA-1000 were added over cells and incubated for 48 h at 37 °C and 5% CO2. For compound treatment in HEK293^R578X, 10,000 cells were plated in 20 μL of DMEM (High Glucose, 2 mM L-Glutamine, sodium pyruvate, and FBS 10%) in 384-well cell culture plates (Greiner 781,098,). The day after, 5 μL of test compounds prepared 5 × in DMEM complete medium were added over cells and incubated for 48 h at 37 °C and 5% CO2.
After the treatment process, 2.5 µL of RIPA buffer 10 x (Abcam ab156034) were added over the […] of cells for 20 min at room temperature to obtain a complete cell lysis. Then, 2 μL of sample (i.e., cell lysate with supernatant) were transferred to the AlphaLISA plate (PerkinElmer 6,059,340) containing […] of antibodies mixture ([…] of acceptor Beads-Ab and […] of biotin-rAb) prepared in AlphaLISA buffer 1 x (PerkinElmer AL00F). The reaction was incubated for 90 min at room temperature. Finally, 10 μL of […] of donor beads (PerkinElmer 6760002,) were added to the reaction under subdued light, mixed gently, and incubated for 3 h at room temperature. AlphaLISA signal was detected with an Envision microplate reader (Perkin Elmer) using the following setting: Filter: AlphaScreen, Excitation time: 180 ms, Integration time: 300 ms.
Statistical analyses were performed using GraphPad Prism v. 7.04 (La Jolla, California). Results are shown as mean ± SD of experimental replicates. Dose–response curves to assess compound treatment effect were plotted in a four-parameter logistic model. Relative EC50, representing the total drug concentration producing a 50% effect, was calculated in the four-parameter logistic equation. Comparisons of collagen protein and mRNA expression in different experimental conditions were made using ANOVA, followed by a post hoc test. statistical significance was considered with p values < 0.05.
A general note: Bead proximity is the source of the signal in Alpha formats.

Another series deals with T3, SAPK2α (Homo sapiens, UniProt Q16539).
T3 construct: Eurofins Pharma Discovery Services
T3 sequence (Q16539 whole entry): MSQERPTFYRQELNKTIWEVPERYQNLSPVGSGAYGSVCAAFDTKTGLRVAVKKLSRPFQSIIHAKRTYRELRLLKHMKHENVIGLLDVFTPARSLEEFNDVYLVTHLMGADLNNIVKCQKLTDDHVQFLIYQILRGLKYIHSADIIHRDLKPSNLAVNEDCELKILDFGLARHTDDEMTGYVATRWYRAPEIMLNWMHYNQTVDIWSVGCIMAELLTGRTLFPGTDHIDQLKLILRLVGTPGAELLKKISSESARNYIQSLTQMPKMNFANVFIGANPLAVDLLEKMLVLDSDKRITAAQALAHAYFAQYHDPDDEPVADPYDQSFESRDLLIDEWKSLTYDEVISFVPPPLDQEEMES
Description: Selectivity panel (Eurofins): p38/SAPK2α kinase. It counts as biochemical.

For the next series, the system named is BZD. Description: Selectivity panel (Eurofins): benzodiazepine receptor BZD. It counts as binding. Particulars: for % inhibition, BZD: n = 1, duplicate.
The next series addresses Syk (Homo sapiens, UniProt P43405). As to the kind of experiment: Enzymatic Syk kinase activity. It counts as biochemical. The following applies: dose-response curves; read-out: IC50 ± SD, Syk. How it is done: (§2) Enzymatic Syk kinase activity assays were performed as previously described. Enzymatic activity of JAK1, JAK2, JAK3, and Tyk kinases was evaluated as previously described.

The target in another series is JAK2 (Homo sapiens, UniProt O60674). Description: Enzymatic JAK2 kinase activity. The series is classed as biochemical. The following applies: dose-response curves; read-out: IC50 ± SD, JAK2. How it is done:
as §2

Where [3] appears, read: at concentrations of 3 and 10 µM.

In general, inhibition refers to the change of the read-out against control, counted positive when it falls. The IC50 is the midpoint of a concentration-inhibition curve. As a reminder, the EC50 is the concentration giving half of the maximal effect.

SMILES strings stand for the structures.

T2 sequence (Q08499 303-809 limits assumed): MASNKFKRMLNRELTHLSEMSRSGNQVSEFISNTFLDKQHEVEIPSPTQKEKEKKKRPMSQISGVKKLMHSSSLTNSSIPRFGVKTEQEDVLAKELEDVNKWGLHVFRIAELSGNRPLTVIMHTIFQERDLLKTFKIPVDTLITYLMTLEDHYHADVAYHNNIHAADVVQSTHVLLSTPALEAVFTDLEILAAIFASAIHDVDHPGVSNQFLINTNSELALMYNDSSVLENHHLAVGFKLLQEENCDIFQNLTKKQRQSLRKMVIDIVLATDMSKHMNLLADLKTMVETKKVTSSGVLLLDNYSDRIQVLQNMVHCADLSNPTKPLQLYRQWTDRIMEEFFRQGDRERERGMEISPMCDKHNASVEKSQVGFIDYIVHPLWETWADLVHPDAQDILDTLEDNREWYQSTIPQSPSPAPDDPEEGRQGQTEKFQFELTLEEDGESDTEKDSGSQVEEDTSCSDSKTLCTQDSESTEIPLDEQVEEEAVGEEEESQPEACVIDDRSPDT
T1 sequence (Q01959 whole entry): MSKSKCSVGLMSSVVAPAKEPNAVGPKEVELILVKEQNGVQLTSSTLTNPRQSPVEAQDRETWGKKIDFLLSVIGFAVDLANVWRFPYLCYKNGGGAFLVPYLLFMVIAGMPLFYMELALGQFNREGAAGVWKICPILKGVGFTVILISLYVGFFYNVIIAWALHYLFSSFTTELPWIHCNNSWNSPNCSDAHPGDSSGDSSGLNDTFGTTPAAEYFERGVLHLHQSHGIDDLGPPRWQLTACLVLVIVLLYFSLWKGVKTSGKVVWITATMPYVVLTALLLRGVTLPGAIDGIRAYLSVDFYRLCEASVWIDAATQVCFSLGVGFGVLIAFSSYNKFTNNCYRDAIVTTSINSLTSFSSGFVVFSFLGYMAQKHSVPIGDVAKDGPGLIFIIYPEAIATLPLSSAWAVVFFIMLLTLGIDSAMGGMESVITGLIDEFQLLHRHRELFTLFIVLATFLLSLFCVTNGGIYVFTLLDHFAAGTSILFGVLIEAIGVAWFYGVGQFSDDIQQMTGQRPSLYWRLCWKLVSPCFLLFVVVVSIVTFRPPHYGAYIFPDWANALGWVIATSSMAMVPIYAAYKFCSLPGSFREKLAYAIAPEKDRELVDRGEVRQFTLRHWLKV
JAK2, sequence (O60674 whole entry, species assumed): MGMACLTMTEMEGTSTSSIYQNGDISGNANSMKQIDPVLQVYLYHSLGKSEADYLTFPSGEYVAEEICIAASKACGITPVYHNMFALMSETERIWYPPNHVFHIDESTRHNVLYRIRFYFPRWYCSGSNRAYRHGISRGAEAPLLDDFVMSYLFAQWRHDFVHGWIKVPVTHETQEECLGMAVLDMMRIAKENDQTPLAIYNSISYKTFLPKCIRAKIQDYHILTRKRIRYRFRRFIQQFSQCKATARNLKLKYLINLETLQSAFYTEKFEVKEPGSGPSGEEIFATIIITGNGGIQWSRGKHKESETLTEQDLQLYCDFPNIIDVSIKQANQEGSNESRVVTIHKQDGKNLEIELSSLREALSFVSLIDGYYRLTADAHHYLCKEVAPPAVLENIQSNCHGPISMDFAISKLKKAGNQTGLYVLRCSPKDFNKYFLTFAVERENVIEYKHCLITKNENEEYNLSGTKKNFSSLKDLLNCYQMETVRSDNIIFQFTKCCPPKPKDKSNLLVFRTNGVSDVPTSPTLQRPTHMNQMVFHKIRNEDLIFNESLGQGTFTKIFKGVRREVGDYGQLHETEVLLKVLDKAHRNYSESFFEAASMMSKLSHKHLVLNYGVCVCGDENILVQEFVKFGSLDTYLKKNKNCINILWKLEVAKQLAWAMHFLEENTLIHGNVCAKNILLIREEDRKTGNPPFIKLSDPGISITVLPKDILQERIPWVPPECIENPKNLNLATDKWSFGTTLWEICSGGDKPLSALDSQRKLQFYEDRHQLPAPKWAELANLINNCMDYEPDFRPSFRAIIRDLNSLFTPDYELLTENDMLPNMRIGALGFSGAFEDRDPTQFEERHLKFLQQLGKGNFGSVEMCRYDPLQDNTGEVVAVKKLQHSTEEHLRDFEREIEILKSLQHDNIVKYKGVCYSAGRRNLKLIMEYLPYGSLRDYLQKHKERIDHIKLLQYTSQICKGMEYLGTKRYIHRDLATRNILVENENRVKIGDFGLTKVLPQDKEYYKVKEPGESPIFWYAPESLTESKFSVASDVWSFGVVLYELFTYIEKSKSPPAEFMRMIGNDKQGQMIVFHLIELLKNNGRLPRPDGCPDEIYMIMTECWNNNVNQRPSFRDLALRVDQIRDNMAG

As for `C#Cc1cc(-c2ccncc2)c(-c2cccc(F)c2)nc1N` [Compound 7], the inhibition at 3 µM on Dopamine transporter (at 3 μM) was found to be 17%; against PDE4D2 (at 3 μM) it was 16%; on SAPK2α (at 3 μM, n = 1, duplicate, read-out: % inhibition, SAPK2α) it was 90%. In addition, the inhibition at 10 µM at Dopamine transporter (at 10 μM) worked out at 40%; on PDE4D2 (at 10 μM), 34%; on SAPK2α (at 10 μM, n = 1, duplicate, read-out: % inhibition, SAPK2α) it was 103%. The inhibition at 30 µM came out at 64% on Dopamine transporter (at 30 μM); 61% against PDE4D2 (at 30 μM); 107% at SAPK2α (at 30 μM, n = 1, duplicate, read-out: % inhibition, SAPK2α). Besides, the half-maximal inhibitory concentration (IC50) in [1] was over 100 µM. For the same compound, the “Cytotox. % inhibition of viability” value in the series on NHK cells is recorded as 19% ± 11 at 100 (n=4). Moreover, the “% inhibition, Kappa (KOP)” value with Kappa (KOP) (at 3 μM) is 12%; in the series on Kappa (KOP) (at 10 μM), 32%; in the series on Kappa (KOP) (at 30 μM) it was 54%. Also, in series [2], the concentration for a half-maximal effect (EC50) was 60 ± 4.6 µM. In addition, in series [2] (at 100 µM), the “Increase in C7 levels Emax, % vs baseline” value came out at 96 ± 35 at 100 % vs baseline. Moreover, the “antagonism/inhibition of p38/SAPK2α kinase” value at SAPK2α (setting [3]) is on record as at least 50%. Also, the “% inhibition, BZD” value was 48% with BZD (at 3 μM), 73% in the series on BZD (at 10 μM) and 88% with BZD (at 30 μM). Also, in the series on BZD (setting [3]), the “antagonism/inhibition of benzodiazepine receptor BZD” value is at least 50%.
On to `NC(=O)Cn1ccc2ccc(-c3cnc(N)c(C(=O)NC4C5CC6CC4CC(O)(C6)C5)n3)cc21` (stereo not shown) [Compound 1], for which the half-inhibitory concentration (IC50) on Syk stood at 1.72 ± 0.44 µM; at JAK2, 0.12 ± 0.06 µM.
For the compound `CNC(C)C1CCC(N)C(OC2C(N)CC(N)C(OC3OCC(C)(O)C(NC)C3O)C2O)O1` (stereo not shown) [Gentamicin, reference compound], the EC50 in series [2] is 4500 ± 2900 µM. In series [2] (at 4100 µM), the “Increase in C7 levels Emax, % vs baseline” value came out at 89 ± 17 at 4100 % vs baseline.
